EC50 data for 28 compounds are collected here from US20240228504A1, “SUBSTITUTED TRICYCLIC AMIDES, ANALOGUES THEREOF, AND METHODS USING SAME” (Arbutus Biopharma Corporation, priority 2020, published 2024).

The term EC50 denotes the concentration giving half of the maximal effect.

For this experiment, the system named is HBV rcDNA in HepDE19 cells. The experiment is described as follows: HepDE19 assay with bDNA quantitation of HBV rcDNA. The note with it: Hepatitis B virus, HepDE19, HepDE19 assay, inhibition of rcDNA formation, bDNA quantitation; read-out: DE-19bDNA EC50. It counts as cell-based, hepatitis B virus.
Turning to `CN(C(=O)c1cc2cc(F)c(F)cc2[nH]1)[C@@H]1COC(=O)c2[nH]c(=O)c3cc(F)c(F)cc3c21` [Compound 321, (S)-N-(8,9-Difluoro-4,6-dioxo-1,4,5,6-tetrahydro-2H-pyrano[3,4-c]isoquinolin-1-yl)-5,6-difluoro-N-methyl-1H-indole-2-carboxamide], the EC50 was 10 nM.
Turning to `CN(C(=O)c1cccc(Oc2cccc(F)c2)c1)[C@@H]1COCc2[nH]c(=O)c3cc(F)c(F)cc3c21` [Compound 322, (S)-N-(8,9-Difluoro-6-oxo-1,4,5,6-tetrahydro-2H-pyrano[3,4-c]isoquinolin-1-yl)-3-(3-fluorophenoxy)-N-methylbenzamide], the EC50 is 8100 nM.
For `COc1ccc2[nH]c(C(=O)N(C)[C@@H]3COCc4[nH]c(=O)c5cc(F)c(F)cc5c43)cc2c1` [Compound 324, (S)-N-(8,9-Difluoro-6-oxo-1,4,5,6-tetrahydro-2H-pyrano[3,4-c]isoquinolin-1-yl)-5-methoxy-N-methyl-1H-indole-2-carboxamide] the value was 70 nM; for `CN(C(=O)c1cc2cc(Cl)ccc2[nH]1)[C@@H]1COCc2[nH]c(=O)c3cc(F)c(F)cc3c21` [Compound 325, (S)-5-chloro-N-(8,9-Difluoro-6-oxo-1,4,5,6-tetrahydro-2H-pyrano[3,4-c]isoquinolin-1-yl)-N-methyl-1H-indole-2-carboxamide], 20 nM.
For `Cc1ccc2[nH]c(C(=O)N(C)[C@@H]3COCc4[nH]c(=O)c5cc(F)c(F)cc5c43)cc2c1` [Compound 326, (S)-N-(8,9-Difluoro-6-oxo-1,4,5,6-tetrahydro-2H-pyrano[3,4-c]isoquinolin-1-yl)-N,5-dimethyl-1H-indole-2-carboxamide] the value was 2500 nM.
For `CN(C(=O)c1cc2cc(OC(F)(F)F)ccc2[nH]1)[C@@H]1COCc2[nH]c(=O)c3cc(F)c(F)cc3c21` [Compound 327, (S)-N-(8,9-Difluoro-6-oxo-1,4,5,6-tetrahydro-2H-pyrano[3,4-c]isoquinolin-1-yl)-N-methyl-5-(trifluoromethoxy)-1H-indole-2-carboxamide] the value was 1200 nM; for `CCc1ccc2[nH]c(C(=O)N(C)[C@@H]3COCc4[nH]c(=O)c5cc(F)c(F)cc5c43)cc2c1` [Compound 328, (S)-N-(8,9-Difluoro-6-oxo-1,4,5,6-tetrahydro-2H-pyrano[3,4-c]isoquinolin-1-yl)-5-ethyl-N-methyl-1H-indole-2-carboxamide], 3100 nM; for `COc1cccc2[nH]c(C(=O)N(C)[C@@H]3COCc4[nH]c(=O)c5cc(F)c(F)cc5c43)cc12` [Compound 329, (S)-N-(8,9-Difluoro-6-oxo-1,4,5,6-tetrahydro-2H-pyrano[3,4-c]isoquinolin-1-yl)-4-methoxy-N-methyl-1H-indole-2-carboxamide], 260 nM.
Consider `Cc1cccc2[nH]c(C(=O)N(C)[C@@H]3COCc4[nH]c(=O)c5cc(F)c(F)cc5c43)cc12` [Compound 330, (S)-N-(8,9-Difluoro-6-oxo-1,4,5,6-tetrahydro-2H-pyrano[3,4-c]isoquinolin-1-yl)-N,4-dimethyl-1H-indole-2-carboxamide], for which the EC50 came to 10 nM.
The result for `CCC(CC)C(=O)OC1OC[C@@H](N(C)C(=O)c2cc3cc(F)c(F)cc3[nH]2)c2c1[nH]c(=O)c1cc(F)c(F)cc21` (stereo partly drawn) [Compound 331, (1S)-1-(5,6-Difluoro-N-methyl-1H-indole-2-carboxamido)-8,9-difluoro-6-oxo-1,4,5,6-tetrahydro-2H-pyrano[3,4-c]isoquinolin-4-yl 2-ethylbutanoate] reads 10 nM.
The result for `CN(C(=O)c1cc2oc(Cl)cc2[nH]1)[C@@H]1COCc2[nH]c(=O)c3cc(F)c(F)cc3c21` [Compound 332, (S)-2-Chloro-N-(8,9-difluoro-6-oxo-1,4,5,6-tetrahydro-2H-pyrano[3,4-c]isoquinolin-1-yl)-N-methyl-4H-furo[3,2-b]pyrrole-5-carboxamide] reads 40 nM.
Consider `CN(C(=O)c1cc2c(C#N)cc(F)cc2[nH]1)[C@@H]1COCc2[nH]c(=O)c3cc(F)c(F)cc3c21` [Compound 341, (S)-4-Cyano-N-(8,9-difluoro-6-oxo-1,4,5,6-tetrahydro-2H-pyrano[3,4-c]isoquinolin-1-yl)-6-fluoro-N-methyl-1H-indole-2-carboxamide], for which the EC50 amounted to 30 nM.
The result for `CCc1cc(F)cc2[nH]c(C(=O)N(C)[C@@H]3COCc4[nH]c(=O)c5cc(F)c(F)cc5c43)cc12` [Compound 342, (S)-N-(8,9-Difluoro-6-oxo-1,4,5,6-tetrahydro-2H-pyrano[3,4-c]isoquinolin-1-yl)-4-ethyl-6-fluoro-N-methyl-1H-indole-2-carboxamide] reads 10 nM; that for `CN(C(=O)c1cc2c(Cl)cc(F)cc2[nH]1)[C@@H]1COCc2[nH]c(=O)c3cc(F)c(F)cc3c21` [Compound 343, (S)-4-Chloro-N-(8,9-difluoro-6-oxo-1,4,5,6-tetrahydro-2H-pyrano[3,4-c]isoquinolin-1-yl)-6-fluoro-N-methyl-1H-indole-2-carboxamide], 10 nM.
For `Cc1cc(F)cc2[nH]c(C(=O)N(C)[C@@H]3COCc4[nH]c(=O)c5cc(F)c(F)cc5c43)cc12` [Compound 344, (S)-N-(8,9-Difluoro-6-oxo-1,4,5,6-tetrahydro-2H-pyrano[3,4-c]isoquinolin-1-yl)-6-fluoro-N,4-dimethyl-1H-indole-2-carboxamide] the value was 10 nM; for `CN(C(=O)c1cc2cc(C#N)ccc2[nH]1)[C@@H]1COCc2[nH]c(=O)c3cc(F)c(F)cc3c21` [Compound 345, (S)-5-Cyano-N-(8,9-difluoro-6-oxo-1,4,5,6-tetrahydro-2H-pyrano[3,4-c]isoquinolin-1-yl)-N-methyl-1H-indole-2-carboxamide], 30 nM.
For `CN(C(=O)c1cc2cc(S(C)(=O)=O)ccc2[nH]1)[C@@H]1COCc2[nH]c(=O)c3cc(F)c(F)cc3c21` [Compound 346, (S)-N-(8,9-Difluoro-6-oxo-1,4,5,6-tetrahydro-2H-pyrano[3,4-c]isoquinolin-1-yl)-N-methyl-5-(methylsulfonyl)-1H-indole-2-carboxamide], the concentration for a half-maximal effect (EC50) turned out to be 6700 nM.
`CN(C(=O)c1cc2c(Cl)cccc2[nH]1)[C@@H]1COCc2[nH]c(=O)c3cc(F)c(F)cc3c21` [Compound 347, (S)-4-Chloro-N-(8,9-difluoro-6-oxo-1,4,5,6-tetrahydro-2H-pyrano[3,4-c]isoquinolin-1-yl)-N-methyl-1H-indole-2-carboxamide]: the EC50 came to 10 nM.
For `CN(C(=O)c1cc2ccc(Br)cn2c1)[C@@H]1COCc2[nH]c(=O)c3cc(F)c(F)cc3c21` [Compound 348, (S)-6-Bromo-N-(8,9-difluoro-6-oxo-1,4,5,6-tetrahydro-2H-pyrano[3,4-c]isoquinolin-1-yl)-N-methylindolizine-2-carboxamide] the value was 40 nM.
For `CN(C(=O)c1cc2sc(Cl)cc2[nH]1)[C@@H]1COCc2[nH]c(=O)c3cc(F)c(F)cc3c21` [Compound 349, (S)-2-Chloro-N-(8,9-difluoro-6-oxo-1,4,5,6-tetrahydro-2H-pyrano[3,4-c]isoquinolin-1-yl)-N-methyl-4H-thieno[3,2-b]pyrrole-5-carboxamide] the value was 10 nM.
With `CN(C(=O)c1cc2scc(Cl)c2[nH]1)[C@@H]1COCc2[nH]c(=O)c3cc(F)c(F)cc3c21` [Compound 350, (S)-3-chloro-N-(8,9-difluoro-6-oxo-1,4,5,6-tetrahydro-2H-pyrano[3,4-c]isoquinolin-1-yl)-N-methyl-4H-thieno[3,2-b]pyrrole-5-carboxamide], the EC50 came out at 70 nM.
`CN(C(=O)c1cc2c(CO)cc(F)cc2[nH]1)[C@@H]1COCc2[nH]c(=O)c3cc(F)c(F)cc3c21` [Compound 355, (S)-N-(8,9-Difluoro-6-oxo-1,4,5,6-tetrahydro-2H-pyrano[3,4-c]isoquinolin-1-yl)-6-fluoro-4-(hydroxymethyl)-N-methyl-1H-indole-2-carboxamide]: the EC50 is 20 nM.
For `CN(C(=O)c1cc2cncc(Br)c2o1)[C@@H]1COCc2[nH]c(=O)c3cc(F)c(F)cc3c21` [Compound 356, (S)-7-Bromo-N-(8,9-difluoro-6-oxo-1,4,5,6-tetrahydro-2H-pyrano[3,4-c]isoquinolin-1-yl)-N-methylfuro[3,2-c]pyridine-2-carboxamide] the value was 1500 nM.
The result for `CN(C(=O)c1ccc2c(Cl)nn(C(F)F)c2c1)[C@@H]1COCc2[nH]c(=O)c3cc(F)c(F)cc3c21` [Compound 357, (S)-3-Chloro-N-(8,9-difluoro-6-oxo-1,4,5,6-tetrahydro-2H-pyrano[3,4-c]isoquinolin-1-yl)-1-(difluoromethyl)-N-methyl-1H-indazole-6-carboxamide] reads 30 nM; that for `CN(C(=O)c1ccc2c(Cl)n(C(F)F)nc2c1)[C@@H]1COCc2[nH]c(=O)c3cc(F)c(F)cc3c21` [Compound 358, (S)-3-Chloro-N-(8,9-difluoro-6-oxo-1,4,5,6-tetrahydro-2H-pyrano[3,4-c]isoquinolin-1-yl)-2-(difluoromethyl)-N-methyl-2H-indazole-6-carboxamide], 680 nM.
For `CN(C(=O)c1ccc2c(c1)c(Cl)nn2C(F)F)[C@@H]1COCc2[nH]c(=O)c3cc(F)c(F)cc3c21` [Compound 359, (S)-3-chloro-N-(8,9-difluoro-6-oxo-1,4,5,6-tetrahydro-2H-pyrano[3,4-c]isoquinolin-1-yl)-1-(difluoromethyl)-N-methyl-1H-indazole-5-carboxamide] the value was 10 nM.
Take `CN(C(=O)c1ccc2nn(C(F)F)c(Cl)c2c1)[C@@H]1COCc2[nH]c(=O)c3cc(F)c(F)cc3c21` [Compound 360, (S)-3-Chloro-N-(8,9-difluoro-6-oxo-1,4,5,6-tetrahydro-2H-pyrano[3,4-c]isoquinolin-1-yl)-2-(difluoromethyl)-N-methyl-2H-indazole-5-carboxamide]: the EC50 is 120 nM.
For `CN(C(=O)c1ccc(Cl)c(Cl)c1)[C@@H]1COCc2[nH]c(=O)c3cc(F)c(F)cc3c21` [Compound 361, (S)-3,4-Dichloro-N-(8,9-difluoro-6-oxo-1,4,5,6-tetrahydro-2H-pyrano[3,4-c]isoquinolin-1-yl)-N-methylbenzamide] the value was 10 nM.
